Data taken from patent publication US20110269812A1, “NOVEL BENZYLIDENE-INDOLINONE AND THEIR MEDICAL AND DIAGNOSTIC USES” (Agency for Science, Technology and Research, priority 2008, published 2011).

Biological target: T1, Insulin R (Homo sapiens, UniProt P06213)
T1 construct: endogenous in cells; host or cells: HuH7
Assay: Human phospho-RTK array, HuH7: Insulin R
Assay type: cell-based
Settings: 24 h, untreated 0.74
Experimental: Kinase phosphorylation changes were determined with human phospho-RTK array.
Cells harvesting, hybridization with RTK array and incubation with anti-phosphotyrosine were performed according to manufacturer's instruction. Imaging and quantification of the spots intensities was with Fujifilm LAS-3000 (Tokyo, Japan). Average signal of the duplicate spots for each RTK was determined.

T1 sequence (P06213 28-1382): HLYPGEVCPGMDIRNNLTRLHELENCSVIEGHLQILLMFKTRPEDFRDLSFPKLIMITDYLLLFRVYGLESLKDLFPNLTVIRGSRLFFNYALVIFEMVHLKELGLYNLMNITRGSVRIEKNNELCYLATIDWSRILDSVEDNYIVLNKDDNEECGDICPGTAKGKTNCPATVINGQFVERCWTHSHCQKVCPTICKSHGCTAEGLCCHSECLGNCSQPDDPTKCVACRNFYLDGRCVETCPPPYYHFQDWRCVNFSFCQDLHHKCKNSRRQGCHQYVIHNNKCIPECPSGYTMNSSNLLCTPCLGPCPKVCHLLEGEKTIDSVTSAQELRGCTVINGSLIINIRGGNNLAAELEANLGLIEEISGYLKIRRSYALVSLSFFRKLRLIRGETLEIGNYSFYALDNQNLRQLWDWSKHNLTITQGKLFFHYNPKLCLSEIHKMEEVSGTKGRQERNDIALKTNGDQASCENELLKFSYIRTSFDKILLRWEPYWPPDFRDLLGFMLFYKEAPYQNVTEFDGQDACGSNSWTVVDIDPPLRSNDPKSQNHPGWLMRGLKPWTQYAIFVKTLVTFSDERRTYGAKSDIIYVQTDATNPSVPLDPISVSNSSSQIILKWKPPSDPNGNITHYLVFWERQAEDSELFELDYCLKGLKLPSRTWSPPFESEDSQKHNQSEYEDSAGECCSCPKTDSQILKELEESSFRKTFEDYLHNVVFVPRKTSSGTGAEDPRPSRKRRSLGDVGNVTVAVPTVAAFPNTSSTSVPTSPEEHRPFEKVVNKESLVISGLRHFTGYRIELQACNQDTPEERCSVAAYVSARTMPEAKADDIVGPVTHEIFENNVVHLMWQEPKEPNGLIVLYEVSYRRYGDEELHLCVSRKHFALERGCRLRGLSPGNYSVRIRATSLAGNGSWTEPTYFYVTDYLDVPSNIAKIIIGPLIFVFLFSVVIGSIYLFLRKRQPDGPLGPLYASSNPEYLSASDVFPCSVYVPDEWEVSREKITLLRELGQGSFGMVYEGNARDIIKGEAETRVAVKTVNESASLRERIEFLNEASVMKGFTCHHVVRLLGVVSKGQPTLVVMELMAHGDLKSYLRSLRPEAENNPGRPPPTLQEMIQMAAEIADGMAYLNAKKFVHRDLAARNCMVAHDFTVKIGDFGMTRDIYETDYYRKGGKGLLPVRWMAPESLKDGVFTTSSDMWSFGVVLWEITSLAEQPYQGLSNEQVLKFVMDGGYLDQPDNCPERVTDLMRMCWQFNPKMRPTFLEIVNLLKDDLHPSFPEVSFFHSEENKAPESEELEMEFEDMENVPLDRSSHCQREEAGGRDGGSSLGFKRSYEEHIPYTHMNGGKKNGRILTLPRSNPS

O=C1Nc2cc(Cl)ccc2/C1=C\c1cccc(C(F)(F)F)c1 [Compound 47, (E)-6-Chloro-3-(3-(trifluoromethyl)benzylidene)indolin-2-one]
Insulin R Phosphorylation (serum starved HuH7, 1 μM): 0.75 Arbitrary units
Insulin R Phosphorylation (serum starved HuH7, 5 μM): 0.4 Arbitrary units
Insulin R Phosphorylation (serum starved HuH7, 10 μM): 0.38 Arbitrary units
